The text below walks through data of patent US20070128217A1 (priority 2003, published 2007).

Experiment [1] relates to rabbit serum obtained by immunizing a rabbit with the SARS-CoV strain Frankfurt 1. In kind it is binding. Further details: Binding of a rabbit serum to linear peptides / Binding of a rabbit serum to looped peptides / Rabbit serum linear peptides / Rabbit serum looped peptides / Binding of a rabbit serum to linear peptides of protein N of SARS-CoV Urbani (Rabbit serum linear peptides) / Binding of a rabbit serum to looped/cyclic peptides of protein N of SARS-CoV Urbani (Rabbit serum looped peptides): unit not given here.

For experiment [2], the system named is control sera (pooled serum of ten healthy LUMC hospital workers; commercial negative donor pooled serum from the Dutch bloodbank). In kind it is binding, human. More on the design: Binding of Control serum LUMC to linear peptides / Binding of Control serum Blood-bank to linear peptides / Binding of Control serum LUMC to looped peptides / Binding of Control Serum Blood-Bank to Looped peptides / Binding of Control serum LUMC to linear peptides of the protein M of SARS-CoV Urbani / Binding of Control serum Blood-bank to linear peptides of the protein M of SARS-CoV Urbani / Binding of Control serum LUMC to looped peptides of the protein M of SARS-CoV Urbani / Binding of Control Serum Blood-Bank to Looped peptides of the protein M of SARS-CoV Urbani: unit not given here.

Experiment [3] concerns antibodies in sera from SARS patients (sera 1a, 1b, 2, 6, 37, 62, London, SARS-yellow, SARS-green). In kind it is binding, human. Further details: Binding of serum 6 to linear peptides of protein X1 of SARS-CoV Urbani / Binding of serum 37 to linear peptides of protein X1 of SARS-CoV Urbani / Binding of serum 6 to looped/cyclic peptide (PEPSCAN-ELISA) / Binding of serum 37 to looped/cyclic peptide (PEPSCAN-ELISA) / Binding of serum 37 to looped/cyclic peptides of protein X1 of SARS-CoV Urbani / Binding of serum 6 to linear peptides of protein X2 / Binding of serum 37 to linear peptides of protein X2 / Binding of serum 37 to looped/cyclic peptides of protein X2 of SARS-CoV Urbani / Binding of serum 6 to linear peptides of protein M of SARS-CoV Urbani / Binding of serum 37 to linear peptides of protein M of SARS-CoV Urbani / Binding of serum 6 to looped/cyclic peptides of protein M of SARS-CoV Urbani / Binding of serum 37 to looped/cyclic peptides of protein M of SARS-CoV Urbani / Binding of serum 6 to linear peptides of protein X3 of SARS-CoV Urbani / Binding of serum 37 to linear peptides of protein X3 of SARS-CoV Urbani / Binding of serum 37 to looped/cyclic peptides of protein X3 of SARS-CoV Urbani / Binding of serum 6 to linear peptides of protein X4 of SARS-CoV Urbani / Binding of serum 37 to linear peptides of protein X4 of SARS-CoV Urbani / Binding of serum 37 to looped/cyclic peptides of protein X4 of SARS-CoV Urbani / Binding of serum 6 to linear peptides of protein X5 of SARS-CoV Urbani / Binding of serum 37 to linear peptides of protein X5 of SARS-CoV Urbani / Binding of serum 37 to looped/cyclic peptides of protein X5 of SARS-CoV Urbani / Binding of serum 6 to linear peptides of protein N of SARS-CoV Urbani / Binding of serum 37 to linear peptides of protein N of SARS-CoV Urbani / Binding of serum 6 to linear peptide (PEPSCAN-ELISA) / Binding of serum 1a to looped/cyclic peptides of protein N of SARS-CoV Urbani / Binding of serum 1b to looped/cyclic peptides of protein N of SARS-CoV Urbani / Binding of serum 2 to looped/cyclic peptides of protein N of SARS-CoV Urbani / Binding of serum 6 to looped/cyclic peptides of protein N of SARS-CoV Urbani / Binding of serum 37 to looped/cyclic peptides of protein N of SARS-CoV Urbani / Binding of serum 62 to looped/cyclic peptides of protein N of SARS-CoV Urbani / Binding of serum London to looped/cyclic peptides of protein N of SARS-CoV Urbani / Binding of serum SARS-green to looped/cyclic peptides of protein N of SARS-CoV Urbani: unit not given here.

As for KLVFLWLLWPVTLAC, in experiment [1], the “Rabbit serum linear peptides” value came to 0.1 and the “Rabbit serum looped peptides” value turned out to be 0.0. In experiment [2], the “Binding of Control Serum Blood-Bank to Looped peptides of the protein M of SARS-CoV Urbani” value is on record as 0.7, the “Binding of Control serum Blood-bank to linear peptides of the protein M of SARS-CoV Urbani” value is on record as 0.7, the “Binding of Control serum LUMC to linear peptides of the protein M of SARS-CoV Urbani” value came out at 0.5 and the “Binding of Control serum LUMC to looped peptides of the protein M of SARS-CoV Urbani” value stood at 0.6. Further, in experiment [3], the “Binding of serum 1a to linear peptides of protein M of SARS-CoV Urbani” value turned out to be 0.7, the “Binding of serum 1a to looped/cyclic peptides of protein M of SARS-CoV Urbani” value is 0.6, the “Binding of serum 1b to linear peptides of protein M of SARS-CoV Urbani” value was 0.6 and the “Binding of serum 1b to looped/cyclic peptides of protein M of SARS-CoV Urbani” value amounted to 0.2. Moreover, in experiment [3], the “Binding of serum 2 to linear peptides of protein M of SARS-CoV Urbani” value is listed as 0.5, the “Binding of serum 2 to looped/cyclic peptides of protein M of SARS-CoV Urbani” value turned out to be 0.6, the “Binding of serum 6 to linear peptides of protein M of SARS-CoV Urbani” value came out at 0.4 and the “Binding of serum 6 to looped/cyclic peptides of protein M of SARS-CoV Urbani” value came out at 0.7. In experiment [3], the “Binding of serum 37 to linear peptides of protein M of SARS-CoV Urbani” value was found to be 0.5, the “Binding of serum 37 to looped/cyclic peptides of protein M of SARS-CoV Urbani” value came out at 0.6, the “Binding of serum 62 to linear peptides of protein M of SARS-CoV Urbani” value was 0.5 and the “Binding of serum 62 to looped/cyclic peptides of protein M of SARS-CoV Urbani” value came to 0.6. Further, in experiment [3], the “Binding of serum London to linear peptides of protein M of SARS-CoV Urbani” value amounted to 0.4, the “Binding of serum London to looped/cyclic peptides of protein M of SARS-CoV Urbani” value worked out at 0.2, the “Binding of serum SARS-green to linear peptides of protein M of SARS-CoV Urbani” value is 0.4 and the “Binding of serum SARS-green to looped/cyclic peptides of protein M of SARS-CoV Urbani” value is 0.3. In addition, in experiment [3], the “Binding of serum SARS-yellow to linear peptides of protein M of SARS-CoV Urbani” value is reported as 0.2 and the “Binding of serum SARS-yellow to looped/cyclic peptides of protein M of SARS-CoV Urbani” value is 0.5.

Take KMLHSSSLTSLLKTH: in experiment [1], the “Binding of a rabbit serum to linear peptides” value turned out to be 0.2 and the “Binding of a rabbit serum to looped peptides” value is reported as 0.2. Besides, in experiment [2], the “Binding of Control Serum Blood-Bank to Looped peptides” value was 0.3, the “Binding of Control serum Blood-bank to linear peptides” value came out at 0.7, the “Binding of Control serum LUMC to linear peptides” value was 0.5 and the “Binding of Control serum LUMC to looped peptides” value stood at 0.4. In experiment [3], the “Binding of serum 1a to linear peptides of protein X2” value was found to be 0.6, the “Binding of serum 1a to looped/cyclic peptides of protein X2 of SARS-CoV Urbani” value was 0.3, the “Binding of serum 1b to linear peptides of protein X2” value is listed as 0.5 and the “Binding of serum 1b to looped/cyclic peptides of protein X2 of SARS-CoV Urbani” value is on record as 0.4. Also, in experiment [3], the “Binding of serum 2 to linear peptides of protein X2” value is on record as 0.5, the “Binding of serum 2 to looped/cyclic peptides of protein X2 of SARS-CoV Urbani” value amounted to 0.2, the “Binding of serum 6 to linear peptides of protein X2” value was 0.6 and the “Binding of serum 6 to looped/cyclic peptides of protein X2 of SARS-CoV Urbani” value was found to be 0.2. Further, in experiment [3], the “Binding of serum 37 to linear peptides of protein X2” value turned out to be 0.5, the “Binding of serum 37 to looped/cyclic peptides of protein X2 of SARS-CoV Urbani” value is given as 0.2, the “Binding of serum 62 to linear peptides of protein X2” value was 0.6 and the “Binding of serum 62 to looped/cyclic peptides of protein X2 of SARS-CoV Urbani” value is 0.3. For the same sequence, in experiment [3], the “Binding of serum London to linear peptides of protein X2” value came to 0.9, the “Binding of serum London to looped/cyclic peptides of protein X2 of SARS-CoV Urbani” value turned out to be 0.2, the “Binding of serum SARS-green to linear peptides of protein X2” value turned out to be 0.6 and the “Binding of serum SARS-green to looped/cyclic peptides of protein X2 of SARS-CoV Urbani” value is recorded as 0.7. Besides, in experiment [3], the “Binding of serum SARS-yellow to linear peptides of protein X2” value is 0.4 and the “Binding of serum SARS-yellow to looped/cyclic peptides of protein X2 of SARS-CoV Urbani” value is 0.3.

Turning to KRWQLALYKGFQFIC, in experiment [1], the “Binding of a rabbit serum to linear peptides” value is 0.1 and the “Binding of a rabbit serum to looped peptides” value stood at 0.8. In addition, in experiment [2], the “Binding of Control Serum Blood-Bank to Looped peptides” value came to 0.7, the “Binding of Control serum Blood-bank to linear peptides” value came to 0.6, the “Binding of Control serum LUMC to linear peptides” value stood at 0.5 and the “Binding of Control serum LUMC to looped peptides” value is reported as 0.7. In addition, in experiment [3], the “Binding of serum 1a to linear peptides of protein X1 of SARS-CoV Urbani” value is given as 0.6, the “Binding of serum 1a to looped/cyclic peptide (PEPSCAN-ELISA)” value was 0.6, the “Binding of serum 1b to linear peptides of protein X1 of SARS-CoV Urbani” value was determined as 0.5 and the “Binding of serum 1b to looped/cyclic peptide (PEPSCAN-ELISA)” value is given as 0.4. In addition, in experiment [3], the “Binding of serum 2 to linear peptides of protein X1 of SARS-CoV Urbani” value is on record as 0.5, the “Binding of serum 2 to looped/cyclic peptide (PEPSCAN-ELISA)” value is 0.5, the “Binding of serum 6 to linear peptides of protein X1 of SARS-CoV Urbani” value is 0.6 and the “Binding of serum 6 to looped/cyclic peptide (PEPSCAN-ELISA)” value is 0.8. Besides, in experiment [3], the “Binding of serum 37 to linear peptides of protein X1 of SARS-CoV Urbani” value amounted to 0.6, the “Binding of serum 37 to looped/cyclic peptide (PEPSCAN-ELISA)” value was 0.6, the “Binding of serum 62 to linear peptides of protein X1 of SARS-CoV Urbani” value was 0.5 and the “Binding of serum 62 to looped/cyclic peptide (PEPSCAN-ELISA)” value was 0.6. Besides, in experiment [3], the “Binding of serum London to linear peptides of protein X1 of SARS-CoV Urbani” value is 0.2, the “Binding of serum London to looped/cyclic peptide (PEPSCAN-ELISA)” value came out at 1.1, the “Binding of serum SARS-green to linear peptides of protein X1 of SARS-CoV Urbani” value stood at 0.1 and the “Binding of serum SARS-green to looped/cyclic peptide (PEPSCAN-ELISA)” value came to 0.3. Further, in experiment [3], the “Binding of serum SARS-yellow to linear peptides of protein X1 of SARS-CoV Urbani” value was found to be 0.2 and the “Binding of serum SARS-yellow to looped/cyclic peptide (PEPSCAN-ELISA)” value is 0.5.

Consider KSKNPLLYDANYFVC, for which, in experiment [1], the “Binding of a rabbit serum to linear peptides” value was 0.1 and the “Binding of a rabbit serum to looped peptides” value is 0.6. In experiment [2], the “Binding of Control Serum Blood-Bank to Looped peptides” value was found to be 0.5, the “Binding of Control serum Blood-bank to linear peptides” value is on record as 0.3, the “Binding of Control serum LUMC to linear peptides” value is on record as 0.7 and the “Binding of Control serum LUMC to looped peptides” value is 0.6. In experiment [3], the “Binding of serum 1a to linear peptides of protein X1 of SARS-CoV Urbani” value was found to be 0.7, the “Binding of serum 1a to looped/cyclic peptide (PEPSCAN-ELISA)” value worked out at 0.6, the “Binding of serum 1b to linear peptides of protein X1 of SARS-CoV Urbani” value is on record as 0.4 and the “Binding of serum 1b to looped/cyclic peptide (PEPSCAN-ELISA)” value is recorded as 0.5. Also, in experiment [3], the “Binding of serum 2 to linear peptides of protein X1 of SARS-CoV Urbani” value stood at 0.4, the “Binding of serum 2 to looped/cyclic peptide (PEPSCAN-ELISA)” value worked out at 0.4, the “Binding of serum 6 to linear peptides of protein X1 of SARS-CoV Urbani” value turned out to be 0.4 and the “Binding of serum 6 to looped/cyclic peptide (PEPSCAN-ELISA)” value is reported as 0.3. Moreover, in experiment [3], the “Binding of serum 37 to linear peptides of protein X1 of SARS-CoV Urbani” value is reported as 0.5, the “Binding of serum 37 to looped/cyclic peptide (PEPSCAN-ELISA)” value is on record as 0.6, the “Binding of serum 62 to linear peptides of protein X1 of SARS-CoV Urbani” value is 0.4 and the “Binding of serum 62 to looped/cyclic peptide (PEPSCAN-ELISA)” value was 0.6. In experiment [3], the “Binding of serum London to linear peptides of protein X1 of SARS-CoV Urbani” value was 0.2, the “Binding of serum London to looped/cyclic peptide (PEPSCAN-ELISA)” value turned out to be 0.2, the “Binding of serum SARS-green to linear peptides of protein X1 of SARS-CoV Urbani” value turned out to be 0.2 and the “Binding of serum SARS-green to looped/cyclic peptide (PEPSCAN-ELISA)” value was determined as 0.4. For the same sequence, in experiment [3], the “Binding of serum SARS-yellow to linear peptides of protein X1 of SARS-CoV Urbani” value amounted to 0.3 and the “Binding of serum SARS-yellow to looped/cyclic peptide (PEPSCAN-ELISA)” value is given as 0.4.
